Measurements from US7883723B2, “Water soluble chitosan nanoparticle for delivering an anticancer agent and preparing method thereof” (priority 2004, dated 2011).
Where two headings read alike, the source gives them in different places.

Tested on: CT-26 mourine tumor cells
Conditions: for survival rate of mice: FIG. 8
Experimental: Female BALB/c mice (average weight: 20 g) were injected subcutaneously in the flank with CT-26 mourine tumor cells (5×10^4 cells/mouse). When the tumor was growing to the size of 3 mm×3 mm, the mice were divided into two groups; an experimental group and a control group. Each group was filled with 8 mice having a tumor and they were marked in their ears for the observation. 15 days after the transplantation, the administration (an intravenous injection) of drug and vehicle began. Each test drug was administered both with low dose of 2 mg/kg and with high dose of 10 mg/kg every three days four times total for 12 days. Only vehicle (cremophor:dehydrated ethyl alcohol, 1:1 v/v) was administered to a control group. Death rate of mice was checked every day and the growth of a tumor was measured using caliper measurement device at two or three day interval. Tumor volume was calculated by the following Formula 2. Tumor volume: mm^3=(Length×Width^2)/2 <Formula 2>
A drug or a vehicle was injected into tail vein of a mouse two weeks after tumor transplantation.
Tumor volume was measured from the 15th day after tumor cell transplantation.

SMILES: CC(=O)O[C@H]1C(=O)[C@@]2(C)[C@H]([C@H](OC(=O)c3ccccc3)[C@]3(O)C[C@H](OC(=O)[C@H](O)[C@@H](NC(=O)c4ccccc4)c4ccccc4)C(C)=C1C3(C)C)[C@]1(OC(C)=O)CO[C@@H]1C[C@@H]2O [paclitaxel]
- time for which tumor growth was inhibited before regrowth (10 mg/kg i.v., CT-26 tumor mice, FIG. 9): 30 days
- survival rate of mice (high dose 10 mg/kg i.v. every three days four times, CT-26 tumor mice): not much different from each other
- tumor volume / anticancer activity (high dose 10 mg/kg i.v., CT-26 tumor mice, FIG. 9): remarkably decreased
- survival rate of mice (low dose 2 mg/kg i.v. every three days four times, CT-26 tumor mice): not much different from each other
- tumor volume / tumor growth (low dose 2 mg/kg i.v., CT-26 tumor mice, FIG. 9): not much different between them
- weight changes of mice (mouse, in vivo): not significantly different
